# Legend:
# WT organoids = assay: Murine WT intestinal organoids incubated with conditioned medium or recombinant Wnt antagonists (expansion, clonogenicity); type: cell-based, mouse; conditions: WT organoids, Apc-/- CM, 5 mM LiCl
# Method: Murine intestinal crypts were isolated from Lgr5-EGFP-IRES-Cre^ERT2, Lgr5-EGFP-IRES-Cre^ERT2;Ape/or Villin-Cre^ERT2;Apc^fl/fl mice as described by Sato et al.^35. In short, intestines were removed from the mouse and washed thoroughly with ice-cold PBS. Next, the intestine was opened longitudinally and the villi were gently scraped off by a glass cover slide. The intestine was cut into pieces of 5×5 mm and incubated in 2 mM EDTA solution for 30 min. at 4° C. After removal of the EDTA, the crypts were resuspended in ice-cold 1% FCS in PBS by vigorously shaking the tube and passing the supernatant through a 70 µm strainer. Isolated crypts were resuspended in Matrigel® (Corning) and seeded in pre-heated 24-well plates, supplemented with basal organoid medium consisting of advanced DMEM/F12 medium (Gibco) containing 100× N2 and 50× B27 supplements, 100× Glutamax, 5 mM HEPES, 1 mM N-acetyl-L-cysteine (Sigma), and 100× antibiotic/antimycotic (all Gibco). The basal organoid medium was freshly supplemented with the following growth factors: mouse EGF 50 ng/ml (TEBU-BIO), R-spondin (conditioned medium), Noggin (conditioned medium). The first two days after crypt isolation CHIR99021 (Axon Medchem) and ROCK inhibitor (Sigma) was added to the medium. Ctnnb1^S organoids expressing a constitutive active variant of β-catenin were generated as described by Adam et al.^36. For in vitro recombination of loxP flanked alleles, 1 μM 40H-Tamoxifen (Sigma) was added to the medium. Recombination of the Apc gene was validated by digital droplet PCR (Bio-Rad) using EvaGreen® Supermix (Bio-Rad). Lgr5-EGFP-IRES-Cre^ERT2 organoids, referred to as wild type (WT) organoids, were stably transduced with a red fluorescent mCherry construct (LeGO-C2, Addgene #27399). The in vitro recombined Lgr5-EGFP-IRES-Cre^ERT2;Apc^fl/fl, referred to as Apc^−/−, were stably transduced with a green fluorescent Venus construct (LeGO-V2, Addgene #27340). During competition assays, organoids were plated in equal numbers in 24-well plates and full wells were scanned over time by the EVOS FL Cell Imaging System (Thermo Scientific). Conditioned medium (CM) was taken from 2-3 day old WT or Apc^−/− organoid cultures and freshly supplemented with growth factors R-spondin, Noggin and mEGF. During the competition assays the medium (normal and conditioned) was replaced every other day to minimize effects of medium depletion. To assess the effect of medium depletion, CM was 10× concentrated using 10 kDa Amicon® centrifugal filters (Millipore) and added to fresh ENR medium as 1:10. […] Recombinant proteins NOTUM (2 μg/mL, R&D, 9150-NO-050), WIF1 (5 μg/mL, R&D, 135-WF-050) and DKK2 (1 μg/mL, R&D, 2435-DKB-010) were freshly added to the culture medium, medium was refreshed every other day.
# [1] = system: intestinal stem cells (ISCs) / intestinal epithelial cells; assay: Oral LiCl in WT Lgr5-CreErt2;Rosa26mTmG mice: Wnt activation and neutral ISC dynamics; type: in vivo, mouse
# Method: Lgr5-EGFP-IRES-Cre^ERT2 Villin-Cre^ERT2, Rosa26mTmG, Apc^fl/fl and Kras^G12D mice have been described earlier^30-34. All in vivo experiments were approved by the animal experimentation committee at the Amsterdam UMC—location Academic Medical Center in Amsterdam under nationally registered licence number AVD1180020172125 and performed according to national guidelines. Mice were housed in a 12 hour light/12 hour dark cycle, with temperatures between 20-24° C. and 40-70% humidity. For short term assays, both male and female mice were used. For long term assays, only females were used to prevent the risk of preliminary dropout due to fighting male mice. […] For all mouse experiments, sufficient sample sizes were determined based on previous studies with a similar study design^3,35. Experimental animals were randomly assigned to the control or lithium treated groups, clone sizes and adenoma counts were scored blindly. […] Mouse discomfort during tumour formation assays was closely monitored, and endpoints were determined as <15% weight loss within 2 days or a mouse grimace scale (MGS) score<3. […] After 60 days, intestines were removed and polyps were counted macroscopically.
# After the mice were sacrificed, intestines were removed fully and washed thoroughly with ice-cold PBS. […] For all crypt analyses, clone sizes were quantified as proportions of the crypt circumference (in eights, 1:8-8:8). […]
compound,measurement,setting,value
"[Cl-].[Li+] [LiCl, lithium chloride]",Resistance to Apc-/- CM induced reduction in proliferation and clonogenicity,WT organoids,resistant to the Apc^−/− CM induced reduction in proliferation and clonogenicity
same,Influence on fundamental ISC dynamics (neutral ISC competition),"[1]; WT mice, oral LiCl",no influence on fundamental ISC dynamics
same,"Wnt activation in intestinal epithelial cells (Lgr5 expression, Lgr5-GFP cells)",[1]; oral LiCl 300 mg/liter in tap water,effective Wnt activation

# From patent publication US20240091254A1, “WNT AGONISTS FOR PREVENTION OF CANCER” (ACADEMISH MEDISCH CENTRUM, priority 2021, published 2024)
